Test results published in patent US12281149B2, “Modulators of G-protein coupled receptors” (priority 2021, dated 2025).
*1 amine or outer side, *2 acyl side, *3 side chain or, on linkers, in order; H or OH if unused. Where a SMILES comes first, the peptide text is derived from it. Side-chain parts run from the residue outwards. [ ]: non-standard residue; d: D form. The star is where a group is joined. Isobutyryl(2-(3-CN-5-F-Ph)) = CC(C)(C(=O)*)c1cc(F)cc(C#N)c1; Ala(1H-tetrazol-5-yl) = N[C@@H](Cc1nnn[nH]1)C(=O)O; β2hLeu(2S) = CC(C)C[C@@H](CN[*:1])C(=O)[*:2]; C20 diacid = O=C(O)CCCCCCCCCCCCCCCCCCC(=O)*; γGlu = O=C(O)[C@H](CCC(=O)[*:2])N[*:1]; Gla = N[C@@H](CC(C(=O)O)C(=O)O)C(=O)O; X84 = O=C([C@H]1CCCN([*:1])C1)[*:2]; AEEA = NCCOCCOCC(=O)O; Aib = CC(C)(N)C(=O)O; βAla = NCCC(=O)O

How the values were obtained:
Type in all cases: cell-based
[1] = biological target: T1, GLP-1 receptor (Homo sapiens, UniProt P43220); assay: HitHunter cAMP assay, GLP-1 receptor; details: for EC50: CHO cells stably expressing human GLP-1 receptor, cAMP accumulation, 30 min, read-out: EC50 GLP-1R; for Emax: CHO cells, cAMP, normalized to maximum signal from GLP-1 (high) and DMSO (low), read-out: Emax GLP-1R
T1 sequence (P43220 24-463): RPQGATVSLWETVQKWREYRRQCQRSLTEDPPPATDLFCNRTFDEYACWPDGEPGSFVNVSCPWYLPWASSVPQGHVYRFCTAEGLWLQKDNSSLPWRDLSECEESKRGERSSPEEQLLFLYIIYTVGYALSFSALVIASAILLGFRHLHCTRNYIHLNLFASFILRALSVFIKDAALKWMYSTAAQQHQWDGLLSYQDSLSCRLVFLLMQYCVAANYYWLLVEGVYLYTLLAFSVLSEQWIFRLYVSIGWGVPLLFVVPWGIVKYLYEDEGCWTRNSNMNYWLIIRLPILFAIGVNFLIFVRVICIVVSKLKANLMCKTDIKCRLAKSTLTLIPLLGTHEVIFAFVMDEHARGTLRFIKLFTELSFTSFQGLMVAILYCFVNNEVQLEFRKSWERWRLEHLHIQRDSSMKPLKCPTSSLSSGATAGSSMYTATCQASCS

[2] = biological target: T2, GIP receptor (Homo sapiens, UniProt P48546); assay: HitHunter cAMP assay, GIP receptor; details: for EC50: CHO cells stably expressing GIP receptor, cAMP accumulation, 30 min, read-out: EC50 GIP-1R; for Emax: CHO cells, cAMP, normalized to maximum signal from GIP (high) and DMSO (low), read-out: Emax GIP-1R
T2 sequence (P48546 22-466): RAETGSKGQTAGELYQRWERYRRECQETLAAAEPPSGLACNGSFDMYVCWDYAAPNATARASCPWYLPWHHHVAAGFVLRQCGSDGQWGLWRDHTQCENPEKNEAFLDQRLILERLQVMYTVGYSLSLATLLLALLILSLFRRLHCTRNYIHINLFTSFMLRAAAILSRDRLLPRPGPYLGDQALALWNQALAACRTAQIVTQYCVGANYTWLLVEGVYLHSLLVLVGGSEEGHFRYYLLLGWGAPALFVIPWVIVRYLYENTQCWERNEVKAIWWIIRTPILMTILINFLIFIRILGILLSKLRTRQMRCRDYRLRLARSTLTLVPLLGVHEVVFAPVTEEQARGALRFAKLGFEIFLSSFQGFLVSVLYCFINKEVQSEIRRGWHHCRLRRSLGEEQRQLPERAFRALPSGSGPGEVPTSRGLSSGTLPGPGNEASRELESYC

[3] = biological target: T2, GIP receptor; assay: PathHunter β-arrestin assay, GIP receptor; parameters: host or cells: PathHunter CHO-K1 GIPR β-Arrestin Cell Line; details: β-arrestin-2 recruitment, PathHunter CHO-K1 GIPR β-Arrestin Cell Line, 90 min at 37° C.; normalized to GIP; read-out: GIPR β Arrestin EC50
[4] = biological target: T1, GLP-1 receptor; assay: PathHunter β-arrestin assay, GLP-1 receptor; parameters: host or cells: PathHunter CHO-K1 GLP1R β-Arrestin Cell Line; details: β-arrestin-2 recruitment, PathHunter CHO-K1 GLP1R β-Arrestin Cell Line, 90 min at 37° C.; normalized to GLP-1; read-out: GLP-1R β Arrestin EC50
Experimental: β-arrestin-2 recruitment for GLP-1 receptor or GIP receptor was measured using the DiscoverX PathHunter Detection Kit and PathHunter® CHO-K1 GLPIR β-Arrestin Cell Line or PathHunter® CHO-K1 GIPR β-Arrestin Cell Line, respectively). Briefly, cells were grown in Ham's F12 Nutrient Mix with 10% FBS and lifted with Cell dissociation buffer, Enzyme free, PBS based (ThermoFisher). Harvested cells were pelleted and resuspended in Assay Complete Cell Plating Reagent 2 and 5000 cells per well were plated in tissue culture treated 384-well small volume white assay plates. Plates were then incubated at 37° C. and 5% CO2 overnight. The media was then replaced with fresh Assay Complete Cell Plating Reagent 2. Cells were then treated with 10 nl compound in DMSO using an ECHO 550 acoustic dispenser (Labcyte) in a 20-point dose response format in duplicate for 90 min at 37° C. The assay was then completed according to the manufacturer's instructions. Luminescence was measured using a Perkin Elmer Envision plate reader. Raw data was normalized to the maximum signal from GLP-1 or GIP (high) and DMSO (low). Dose response curves were analyzed using GraphPad Prism 9.0.

Compound	EC50 [1] [nM]	Emax [1] [%]	EC50 [2] [nM]	EC50 [3] [nM]	EC50 [4] [nM]	Emax [2] [%]
CC[C@H](C)[C@H](NC(=O)[C@H](CC(C)C)NC(=O)[C@H](Cc1c[nH]c2ccccc12)NC(=O)[C@H](CCC(N)=O)NC(=O)[C@@H](NC(=O)[C@H](Cc1ccccc1)NC(=O)[C@H](C)NC(=O)[C@H](CCCCNC(=O)COCCOCCNC(=O)COCCOCCNC(=O)CC[C@H](NC(=O)CCCCCCCCCCCCCCCCCCC(=O)O)C(=O)O)NC(=O)[C@H](CCC(N)=O)NC(=O)[C@H](C)NC(=O)[C@@H](NC(=O)[C@H](CCCCN)NC(=O)[C@H](CC(=O)O)NC(=O)[C@H](CC(C)C)NC(=O)C(C)(C)NC(=O)[C@@H](NC(=O)[C@H](CO)NC(=O)[C@H](Cc1ccc(O)cc1)NC(=O)[C@H](CC(=O)O)NC(=O)[C@H](CO)NC(=O)[C@@H](NC(=O)[C@H](Cc1ccccc1)NC(=O)[C@@H](NC(=O)CNC(=O)[C@H](CCC(=O)O)NC(=O)[C@H]1CCCN(C(=O)C(C)(C)c2cc(F)cc(C#N)c2)C1)[C@@H](C)O)[C@@H](C)O)[C@@H](C)CC)[C@@H](C)CC)C(C)C)C(=O)N[C@@H](C)C(=O)NCC(=O)NCC(=O)N1CCC[C@H]1C(=O)N[C@@H](CO)C(=O)N[C@@H](CO)C(=O)NCC(=O)N[C@@H](C)C(=O)N1CCC[C@H]1C(=O)N1CCC[C@H]1C(=O)N1CCC[C@H]1C(=O)N[C@@H](CO)C(N)=O [Compound 212] ({Isobutyryl(2-(3-CN-5-F-Ph))}-[X84]EGTFTSDYSI[Aib]LDKIAQK([AEEA-AEEA-γGlu-C20 diacid])AFVQWLIAGGPSSGAPPPS-NH2)	10 to 100	89	> 1000	> 1000	> 1000	
CC[C@H](C)[C@H](NC(=O)[C@H](CC(C)C)NC(=O)[C@H](Cc1c[nH]c2ccccc12)NC(=O)[C@H](CCC(N)=O)NC(=O)[C@@H](NC(=O)[C@H](Cc1ccccc1)NC(=O)[C@H](C)NC(=O)[C@H](CCCCNC(=O)COCCOCCNC(=O)COCCOCCNC(=O)CC[C@H](NC(=O)CCCCCCCCCCCCCCCCCCC(=O)O)C(=O)O)NC(=O)[C@H](CCC(N)=O)NC(=O)[C@H](C)NC(=O)[C@@H](NC(=O)[C@H](CCCCN)NC(=O)[C@H](CC(=O)O)NC(=O)[C@H](CC(C)C)NC(=O)C(C)(C)NC(=O)[C@@H](NC(=O)[C@H](CO)NC(=O)[C@H](Cc1ccc(O)cc1)NC(=O)[C@H](CC(=O)O)NC(=O)[C@H](CO)NC(=O)[C@@H](NC(=O)[C@H](Cc1ccccc1)NC(=O)[C@@H](NC(=O)CNC(=O)[C@H](CC(C(=O)O)C(=O)O)NC(=O)CCNC(=O)C(C)(C)c1cc(F)cc(C#N)c1)[C@@H](C)O)[C@@H](C)O)[C@@H](C)CC)[C@@H](C)CC)C(C)C)C(=O)N[C@@H](C)C(=O)NCC(=O)NCC(=O)N1CCC[C@H]1C(=O)N[C@@H](CO)C(=O)N[C@@H](CO)C(=O)NCC(=O)N[C@@H](C)C(=O)N1CCC[C@H]1C(=O)N1CCC[C@H]1C(=O)N1CCC[C@H]1C(=O)N[C@@H](CO)C(N)=O [Compound 111] ({Isobutyryl(2-(3-CN-5-F-Ph))-βAla}-[Gla]GTFTSDYSI[Aib]LDKIAQK([AEEA-AEEA-γGlu-C20 diacid])AFVQWLIAGGPSSGAPPPS-NH2)	1 to 10	95	10 to 100	> 1000	> 1000	105
CC[C@H](C)[C@H](NC(=O)[C@H](CO)NC(=O)[C@H](Cc1ccc(O)cc1)NC(=O)[C@H](CC(=O)O)NC(=O)[C@H](CO)NC(=O)[C@@H](NC(=O)[C@H](Cc1ccccc1)NC(=O)[C@@H](NC(=O)CNC(=O)[C@H](CCC(=O)O)NC(=O)CCNC(=O)[C@]1(c2ccccc2)CNC(=O)C1)[C@@H](C)O)[C@@H](C)O)C(=O)N[C@@H](Cc1ccc(O)cc1)C(=O)N[C@@H](CC(C)C)C(=O)N[C@@H](CC(=O)O)C(=O)N[C@@H](CCCCN)C(=O)N[C@@H](CCC(N)=O)C(=O)N[C@@H](C)C(=O)N[C@@H](C)C(=O)NC(C)(C)C(=O)N[C@@H](CCC(=O)O)C(=O)N[C@@H](Cc1ccccc1)C(=O)N[C@H](C(=O)N[C@@H](CC(N)=O)C(=O)N[C@@H](Cc1c[nH]c2ccccc12)C(=O)N[C@@H](CC(C)C)C(=O)N[C@@H](CC(C)C)C(=O)N[C@@H](C)C(=O)NCC(=O)NCC(=O)N1CCC[C@H]1C(=O)N[C@@H](CO)C(=O)N[C@@H](CO)C(=O)NCC(=O)N[C@@H](C)C(=O)N1CCC[C@H]1C(=O)N1CCC[C@H]1C(=O)N1CCC[C@H]1C(=O)N[C@@H](CO)C(=O)N[C@@H](CCCCNC(=O)COCCOCCNC(=O)COCCOCCNC(=O)CC[C@H](NC(=O)CCCCCCCCCCCCCCCCCCC(=O)O)C(=O)O)C(N)=O)C(C)C (single isomer, unassigned) [Compound 130]	1 to 10	107	1 to 10	> 1000	> 1000	106
CC[C@H](C)[C@H](NC(=O)[C@H](CC(C)C)NC(=O)[C@H](Cc1c[nH]c2ccccc12)NC(=O)[C@H](CCC(N)=O)NC(=O)[C@@H](NC(=O)[C@H](Cc1ccccc1)NC(=O)[C@H](C)NC(=O)[C@H](CCCCNC(=O)COCCOCCNC(=O)COCCOCCNC(=O)CC[C@H](NC(=O)CCCCCCCCCCCCCCCCCCC(=O)O)C(=O)O)NC(=O)[C@H](CCC(N)=O)NC(=O)[C@H](C)NC(=O)[C@@H](NC(=O)[C@H](CCCCN)NC(=O)[C@H](CC(=O)O)NC(=O)[C@H](CC(C)C)NC(=O)C(C)(C)NC(=O)[C@@H](NC(=O)[C@H](CO)NC(=O)[C@H](Cc1ccc(O)cc1)NC(=O)[C@H](CC(=O)O)NC(=O)[C@H](CO)NC(=O)[C@@H](NC(=O)[C@H](Cc1ccccc1)NC(=O)[C@@H](NC(=O)CNC(=O)[C@H](Cc1nn[nH]n1)NC(=O)CCNC(=O)C(C)(C)c1cc(F)cc(C#N)c1)[C@@H](C)O)[C@@H](C)O)[C@@H](C)CC)[C@@H](C)CC)C(C)C)C(=O)N[C@@H](C)C(=O)NCC(=O)NCC(=O)N1CCC[C@H]1C(=O)N[C@@H](CO)C(=O)N[C@@H](CO)C(=O)NCC(=O)N[C@@H](C)C(=O)N1CCC[C@H]1C(=O)N1CCC[C@H]1C(=O)N1CCC[C@H]1C(=O)N[C@@H](CO)C(N)=O [Compound 136] ({Isobutyryl(2-(3-CN-5-F-Ph))-βAla}-[Ala(1H-tetrazol-5-yl)]GTFTSDYSI[Aib]LDKIAQK([AEEA-AEEA-γGlu-C20 diacid])AFVQWLIAGGPSSGAPPPS-NH2)	< 0.1	101	1 to 10	< 1000	> 1000	99
CC[C@H](C)[C@H](NC(=O)[C@H](CC(C)C)NC(=O)[C@H](Cc1c[nH]c2ccccc12)NC(=O)[C@H](CCC(N)=O)NC(=O)[C@@H](NC(=O)[C@H](Cc1ccccc1)NC(=O)[C@H](C)NC(=O)[C@H](CCCCNC(=O)COCCOCCNC(=O)COCCOCCNC(=O)CC[C@H](NC(=O)CCCCCCCCCCCCCCCCCCC(=O)O)C(=O)O)NC(=O)[C@H](CCC(N)=O)NC(=O)[C@H](C)NC(=O)[C@@H](NC(=O)[C@H](CCCCN)NC(=O)[C@H](CC(=O)O)NC(=O)[C@H](CC(C)C)NC(=O)C(C)(C)NC(=O)[C@@H](NC(=O)[C@H](CO)NC(=O)[C@H](Cc1ccc(O)cc1)NC(=O)[C@H](CC(=O)O)NC(=O)[C@H](CO)NC(=O)[C@@H](NC(=O)[C@H](Cc1ccccc1)NC(=O)[C@@H](NC(=O)CNC(=O)[C@H](CCC(=O)O)NC(=O)[C@H](CNC(=O)C(C)(C)c1cc(F)cc(C#N)c1)CC(C)C)[C@@H](C)O)[C@@H](C)O)[C@@H](C)CC)[C@@H](C)CC)C(C)C)C(=O)N[C@@H](C)C(=O)NCC(=O)NCC(=O)N1CCC[C@H]1C(=O)N[C@@H](CO)C(=O)N[C@@H](CO)C(=O)NCC(=O)N[C@@H](C)C(=O)N1CCC[C@H]1C(=O)N1CCC[C@H]1C(=O)N1CCC[C@H]1C(=O)N[C@@H](CO)C(N)=O [Compound 193] ({Isobutyryl(2-(3-CN-5-F-Ph))}-[β2hLeu(2S)]EGTFTSDYSI[Aib]LDKIAQK([AEEA-AEEA-γGlu-C20 diacid])AFVQWLIAGGPSSGAPPPS-NH2)	10 to 100	77	100 to 1000	> 1000	> 1000	70
